Data reported in publication PMC10979478, “Deciphering the Biosynthesis and Physiological Function of 5-Methylated Pyrazinones Produced by Myxobacteria” (ACS Central Science, 2024).
Residues, ends and D or L forms follow the SMILES beside them. *: point of attachment. Boc = CC(C)(C)OC(=O)*

Key:
[1] = test system: SDU70-ΔcorA; experiment: Agglutination assay in liquid culture; assay type: cell-based, Corallococcus exiguus; details: for dose dependence of flocculation/agglutination: 1~50 mg/L; for ability to induce agglutination (SAR): each compound added at 5 mg/L
Method: (§1) The agglutination assay basically followed the method described by Velicer.[62] Briefly, DK1622 strains were cultured in CTT medium, whereas SDU70 strains were cultured in VY/2 medium. The aggregation-inducing compounds were added together with the initial inocula. After 3 days of growth, ∼2 mL of liquid cultures (in logarithmic growth stage) were transferred into cuvettes. Samples were left static for 15 min to visualize the clumping phenomenon. To plot the agglutination curves, the absorbance readings (600 nm) were measured on a UV-8000 spectrophotometer at differential intervals within 4 h. Decreasing the absorbance represents the settling of agglutinated cell clumps. Data points are the means of three replicates per strain.

[2] = test system: DK1622-wt; experiment: Agglutination assay in liquid culture; assay type: cell-based, Myxococcus xanthus; details: for dose dependence of flocculation/agglutination: 1~50 mg/L; for ability to induce agglutination (SAR): each compound added at 5 mg/L
Method: as §1

[3] = test system: SDU70-corB; experiment: Agglutination assay of corB-overexpression mutant; assay type: cell-based, Corallococcus exiguus; details: as high as 50 mg/L
Method: as §1

[4] = test system: SDU70-ΔcorA-corB; experiment: Agglutination assay of corB-overexpression mutant; assay type: cell-based, Corallococcus exiguus; details: for morphology on induction: 5 mg/L; for clumping: as high as 50 mg/L
Method: as §1

[5] = test system: DK1622-corB; experiment: Agglutination assay of corB-overexpression mutant; assay type: cell-based, Myxococcus xanthus; details: for agglutination induced by exogenous addition, in corB-overexpressing strain: 5 mg/L; for threshold concentration causing visible flocculation of DK1622-corB relative to DK1622-wt: 1 or 1b′ (Figures S12–S14)
Method: as §1

[6] = molecular target: cathepsin L (Homo sapiens, UniProt P07711); experiment: Protease inhibition assay (z-FR-AMC proteolysis); assay type: biochemical; details: compounds 0~500 μM, pre-incubated 60 min at 37 °C, pH 5.5; read-out: inhibition activity against protease cathepsin L, IC50
Method: (§2) The white needle crystals of 2 were obtained from MeOH solvent by slowly volatilizing in a glass vial under ambient condition. The X-ray diffraction measurement of crystals basically followed our previously published method.1 The crystallographic data for 2 was summarized […]6, and deposited in CCDC database under the access number 2278050. Antibacterial Assay. The antibacterial assay was performed by agar diffusion method.2 Single colony of Gram-positive bacteria Staphylococcus aureus, Gram-negative bacterium Acinetobacter baumannii, and fungus Candida albicans were picked and inoculated into 8 mL of LB liquid medium for overnight growth at 37 °C, respectively. Next day, the cultures were 100-fold diluted to 1x10^7 CFU/mL with fresh LB liquid medium, to grow at 37 °C until OD600 0.4~0.6. Compounds 1 and 2 were dissolved […] The disks were then placed onto an agar plate containing a soft agar overlay with the indicator microorganisms. […] MES, 5 mM DTT, pH 5.5) was detected by proteolysis of fluorescent substrate z-FR-AMC. […] The absorbance was measured by microplate reader (Spectra max GEMINI XPS, excitation wavelength 380 nm, emission wavelength 460 nm). […] The mixture was centrifuged at 12000 rpm for 20 minutes, and the supernatant was subsequently analyzed HPLC-DAD. […] The resulting samples were collected by capillary tubes and analyzed by Microscale Thermophoresis (Monolith NT.115). […]

[7] = Cytotoxic activity on human cell lines; assay type: cell-based; details: A549 lung carcinoma cells, mean value of three replicates
[8] = Cytotoxic activity on human cell lines; assay type: cell-based; details: HepG2 hepatocarcinoma cells, mean value of three replicates
[9] = Cytotoxic activity on human cell lines; assay type: cell-based; details: PC3 prostatic carcinoma cells, mean value of three replicates
[10] = Cytotoxic activity on human cell lines; assay type: cell-based; details: KYSE410 esophageal squamous carcinoma cells, mean value of three replicates
[11] = test system: Acinetobacter baumannii; experiment: Antibacterial assay, agar diffusion method; assay type: cell-based; details: 50 μg/disc
Method: (§3) The white needle crystals of 2 were obtained from MeOH solvent by slowly volatilizing in a glass vial under ambient condition. The X-ray diffraction measurement of crystals basically followed our previously published method.1 The crystallographic data for 2 was summarized […]6, and deposited in CCDC database under the access number 2278050. Antibacterial Assay. The antibacterial assay was performed by agar diffusion method.2 Single colony of Gram-positive bacteria Staphylococcus aureus, Gram-negative bacterium Acinetobacter baumannii, and fungus Candida albicans were picked and inoculated into 8 mL of LB liquid medium for overnight growth at 37 °C, respectively. Next day, the cultures were 100-fold diluted to 1x10^7 CFU/mL with fresh LB liquid medium, to grow at 37 °C until OD600 0.4~0.6. Compounds 1 and 2 were dissolved […] The disks were then placed onto an agar plate containing a soft agar overlay with the indicator microorganisms. Kanamycin (for S. aureus) and apramycin (for C. albicans and E. coli) at a concentration of 1 mg/mL were used as positive controls, and the solvent methanol as the negative control. […] Protease inhibition assay. […] MES, 5 mM DTT, pH 5.5) was detected by proteolysis of fluorescent substrate z-FR-AMC. Enzyme was pre- incubated with a gradient concentration (0~500 μM) of compounds for 60 min at 37 °C in a black 96-well plate. Then, 20 μM of z-FR-AMC was added to each well to make up 200 μ[…] , and the reaction continued for another 30 min. The absorbance was measured by microplate reader (Spectra max GEMINI XPS, excitation wavelength 380 nm, emission wavelength 460 nm). The protease inhibitor E-64 was used as positive control and DMSO was the negative control. All the experiments were completed in triplicate. Enzymatic cleavage of 1 and 1b' using CorB. The reaction was conducted in a 50 μL system comprising of 20 mM Tris-HCl buffer (pH 7.5), 150 mM NaCl, 0.22 mM CorB, and 0.05 mg 1, or 1b' (dissolved in DMSO) respectively. Tris-HCl buffer was used as a negative control, and all experiments were repeated in triplicates. The reactions were incubated at 37 °C for 12 hours and then terminated by adding 50 μL of MeOH. The mixture was centrifuged at 12000 rpm for 20 minutes, and the supernatant was subsequently analyzed HPLC-DAD. MST assay. The purified CorB was mixed with an equal volume of RED-tris-NTA dye solution and incubated in the dark for 30 min, centrifuged at 12000 rpm, 4 °C for 10 min. Then, 10 μL of the CorB-dye complex was mixed with an equal volume of test compound solution ranging from 15.2 μM to 0.5 mM. The resulting samples were collected by capillary tubes and analyzed by Microscale Thermophoresis (Monolith NT.115). 4

[12] = test system: Staphylococcus aureus; experiment: Antibacterial assay, agar diffusion method; assay type: cell-based; details: 50 μg/disc
Method: as §3

[13] = test system: Candida albicans; experiment: Agar diffusion assay against fungus; assay type: cell-based; details: 50 μg/disc
Method: as §2

[14] = test system: four human cell lines; experiment: Antiproliferative activity, summary statement; assay type: cell-based; details: four human cell lines (Table S2)
[15] = test system: DK1622-wt; experiment: Trypan blue binding assay of EPS production; assay type: cell-based, Myxococcus xanthus; details: DK1622-wt supplemented with 5 mg/L
Method: Exopolysaccharide (EPS) production was measured according to the method published by Black et al.[64] Briefly, wild type and mutant strains of DK1622 were inoculated in liquid CTT medium and incubated for 24 h at 30 °C and 200 rpm. The cells grown to the logarithmic phase were collected by centrifugation, and the supernatants were discarded. Cells were resuspended and adjusted to a density of 5 × 10^8 CFU/mL with TPM buffer (1.97 g/L MgSO4·7H2O, 1 M Tris-HCl, 10 mL 0.1 M PBS, pH 7.6). Next, the cell suspension was evenly mixed with an equal volume of Trypan Blue dye solution (150 μg/mL), and TPM buffer was used as a blank control. The supernatant was centrifuged at 12000 rpm for 5 min, and 200 μL was used for the absorbance measurement at 585 nm. Each experiment was performed in triplicate.

[16] = test system: DK1622; experiment: Confocal laser scanning microscopy of cells and EPS; assay type: cell-based, Myxococcus xanthus; details: DK1622+1
Method: The microscopic observation of SDU70 and DK1622 basically followed our recently published methods.[63]Scanning electron microscopy (SEM): DK1622 and SDU70 strains (wild type and mutants) were grown to logarithmic stage. The cells were washed three times with 1× PBS buffer and then fixed overnight at 4 °C in 2.5% glutaraldehyde solution. Samples were prepared using the standard ethanol dehydration method,[62] and observed by QUANTA FEG250 scanning electron microscope (Thermo Fisher Scientific, USA). Confocal laser scanning microscopy (CLSM): DK1622 strains were grown in CTT liquid medium for 24 h, while SDU70 strains were grown in VY/2 medium for 72 h. The presence of EPS, eDNA dead cells, and alive cells were labeled with Alexa 350-labeled wheat germ lectin (WGA), SYTOX Orange, and STYO 9, respectively. The images were taken on LSM 900 CLSM (Zeiss, Germany), using 63× oil immersed objective lens. The CLSM images were captured by ZEN software (Zeiss, Germany) and exported by using ImageJ software.

[17] = test system: CorB; experiment: MST assay of CorB to coralinone A; assay type: binding, Corallococcus exiguus SDU70; details: 15.2 μM to 0.5 mM test compound
Method: as §2

Sequence of cathepsin L (P07711 114-333, species assumed): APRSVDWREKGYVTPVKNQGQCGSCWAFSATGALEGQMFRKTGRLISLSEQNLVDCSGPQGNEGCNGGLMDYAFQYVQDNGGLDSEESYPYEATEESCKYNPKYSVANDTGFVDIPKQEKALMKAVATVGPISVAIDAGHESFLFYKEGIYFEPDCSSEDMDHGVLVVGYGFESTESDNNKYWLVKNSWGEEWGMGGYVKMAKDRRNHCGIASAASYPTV

CC(=O)[C@@H](NC(=O)[C@H](CC(C)C)NC(=O)OC(C)(C)C)C(C)C [1b′]
dose dependence of flocculation/agglutination [1]: dose-dependent manner
ability to induce agglutination (SAR) [1]: effective
dose dependence of flocculation/agglutination [2]: dose-dependent manner
ability to induce agglutination (SAR) [2]: effective
clumping [3]: did not clump
morphology on induction [4]: maintained the dispersed morphology
clumping [4]: did not clump
agglutination induced by exogenous addition, in corB-overexpressing strain [5]: substantially abated agglutination
threshold concentration causing visible flocculation of DK1622-corB relative to DK1622-wt [5]: 3–4 times

CC(C)C[C@H](NC(=O)OC(C)(C)C)C(=O)N[C@H](C=O)C(C)C [10b′] (Boc-Leu-Val-aldehyde)
IC50 [6]: 0.23 µM

CC(=O)O[C@@]12CO[C@@H]1C[C@H](O)[C@@]1(C)C(=O)[C@H](O)C3=C(C)[C@@H](OC(=O)[C@H](O)[C@@H](NC(=O)OC(C)(C)C)c4ccccc4)C[C@@](O)([C@@H](OC(=O)c4ccccc4)[C@H]21)C3(C)C [Docetaxel, reference compound]
IC50 [7]: 33.1 µM
IC50 [8]: 10.3 µM
IC50 [9]: 71.9 µM
IC50 [10]: 17.8 µM

Cc1nc(CC(C)C)c(=O)[nH]c1C(C)C [compound 1, coralinone A]
growth inhibition [11]: No growth inhibition
growth inhibition [12]: No growth inhibition
growth inhibition [13]: No growth inhibition
IC50 [7]: 383 µM
IC50 [8]: 892 µM
IC50 [9]: 796 µM
IC50 [10]: 463 µM
antiproliferative activities [14]: Neither 1 nor 2 showed any significant antiproliferative activities
flocculation at 5 mg/L in dose series ([1]; 5 mg/L): severe flocculation
restoration of pellet morphogenesis by chemical complementation ([1]; 5 mg/L, shaken liquid culture): restored
dose dependence of flocculation/agglutination [1]: dose-dependent manner
concentration that started to be active in causing flocculation ([1]; dose series 1~50 mg/L): 2 mg/L
ability to induce agglutination (SAR) [1]: effective
flocculation at 5 mg/L in dose series ([2]; 5 mg/L): severe flocculation
flocculation on exogenous supplementation ([2]; 5 mg/L, liquid culture): led to flocculation
dose dependence of flocculation/agglutination [2]: dose-dependent manner
concentration that started to be active in causing flocculation ([2]; dose series 1~50 mg/L): 2 mg/L
ability to induce agglutination (SAR) [2]: effective
clumping [3]: did not clump
morphology on induction [4]: maintained the dispersed morphology
clumping [4]: did not clump
agglutination induced by exogenous addition, in corB-overexpressing strain [5]: substantially abated agglutination
threshold concentration causing visible flocculation of DK1622-corB relative to DK1622-wt [5]: 3–4 times
EPS production [15]: cumulation of EPS
EPS production (Alexa 350-WGA blue signal in Merge photos) [16]: higher production of EPS
binding to CorB (MST) [17]: did not disturb CorB-dye binding

CC[C@H](C)c1[nH]c(=O)c(CC(C)C)nc1C [compound 2, coralinone B]
growth inhibition [11]: No growth inhibition
growth inhibition [12]: No growth inhibition
growth inhibition [13]: No growth inhibition
IC50 [7]: 145 µM
IC50 [8]: 504 µM
IC50 [9]: 432 µM
IC50 [10]: 312 µM
antiproliferative activities [14]: Neither 1 nor 2 showed any significant antiproliferative activities
